Experiments:
Format in all cases: biochemical
[1] = target: T1, DNA methyltransferase 1 (RFTS(-) DNMT1) (Homo sapiens, UniProt P26358); assay: endonuclease-coupled DNA methylation assay (IC50); supported by DSF (+[…] °C), FP DNA competition and detergent test
T1 construct: RFTS(-) DNMT1 (amino acids 621–1616)

[2] = target: T1, DNA methyltransferase 1 (RFTS(-) DNMT1); assay: endonuclease-coupled DNA methylation kinetics (Ki); IC50 […]; supported by DSF (+[…] °C), FP DNA competition and detergent test
[3] = target: T2, DNMT3a (Homo sapiens, UniProt Q9Y6K1); assay: endonuclease-coupled DNA methylation assay, single concentration […] ([…] activity remaining); settings: read-out: DNMT3a catalytic domain
T2 construct: C-terminal catalytic domain of DNMT3a (amino acids 611–912)
T2 sequence (Q9Y6K1 611-912): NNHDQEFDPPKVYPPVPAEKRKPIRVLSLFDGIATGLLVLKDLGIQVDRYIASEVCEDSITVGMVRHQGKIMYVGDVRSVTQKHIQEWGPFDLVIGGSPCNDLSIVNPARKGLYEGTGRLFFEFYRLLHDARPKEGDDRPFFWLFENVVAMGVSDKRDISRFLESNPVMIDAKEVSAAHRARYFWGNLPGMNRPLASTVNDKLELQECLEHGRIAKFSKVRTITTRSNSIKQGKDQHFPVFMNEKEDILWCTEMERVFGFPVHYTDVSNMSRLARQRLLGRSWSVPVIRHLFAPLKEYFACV

T1 sequence (P26358 621-1616): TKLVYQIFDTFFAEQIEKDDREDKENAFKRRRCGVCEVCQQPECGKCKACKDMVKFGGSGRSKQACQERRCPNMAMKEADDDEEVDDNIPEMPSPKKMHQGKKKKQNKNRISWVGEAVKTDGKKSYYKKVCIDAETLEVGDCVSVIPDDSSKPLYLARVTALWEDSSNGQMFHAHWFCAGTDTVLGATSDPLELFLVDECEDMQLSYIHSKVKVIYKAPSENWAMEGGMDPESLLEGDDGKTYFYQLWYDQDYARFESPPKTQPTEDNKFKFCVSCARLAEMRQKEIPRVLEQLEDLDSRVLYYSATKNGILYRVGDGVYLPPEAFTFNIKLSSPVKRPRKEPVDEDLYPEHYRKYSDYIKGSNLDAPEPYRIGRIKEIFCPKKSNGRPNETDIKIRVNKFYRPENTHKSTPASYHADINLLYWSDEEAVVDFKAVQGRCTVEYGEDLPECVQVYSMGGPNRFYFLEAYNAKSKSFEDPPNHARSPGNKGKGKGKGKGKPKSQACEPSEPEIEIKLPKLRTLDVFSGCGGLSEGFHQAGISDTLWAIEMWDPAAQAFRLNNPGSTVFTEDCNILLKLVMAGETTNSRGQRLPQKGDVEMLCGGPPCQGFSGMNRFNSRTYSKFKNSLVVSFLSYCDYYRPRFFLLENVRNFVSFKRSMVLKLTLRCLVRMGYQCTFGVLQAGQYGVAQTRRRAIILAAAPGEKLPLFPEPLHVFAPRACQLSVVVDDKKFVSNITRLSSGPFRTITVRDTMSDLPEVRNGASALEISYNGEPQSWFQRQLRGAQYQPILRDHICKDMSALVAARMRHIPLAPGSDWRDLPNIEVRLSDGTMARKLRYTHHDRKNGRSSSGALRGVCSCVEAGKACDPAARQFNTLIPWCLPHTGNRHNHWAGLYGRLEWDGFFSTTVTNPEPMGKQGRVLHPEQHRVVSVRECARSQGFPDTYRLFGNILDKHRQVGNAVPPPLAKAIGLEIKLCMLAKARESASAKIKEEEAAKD

Cc1ccc(NC(=O)c2ccc3c(c2O)C(=O)c2ccccc2C3=O)cc1 [A11]
IC50 [1]: 59 ± 10 µM

COc1cc(C(=O)Nc2ccc3c(c2)C(=O)c2ccccc2C3=O)cc(OC)c1OC [A13]
Ki [2]: 13 ± 3 µM

CC(=O)NCCc1ccc(O)c(-c2c(O)c(O)c3c(c2O)C(=O)c2c(cc(O)c(C(=O)O)c2C(=O)O)C3=O)c1 [LCA, laccaic acid A]
activity at 100 µM [3]: 32 ± 1%
